For orientation: IC50 means the point on the concentration scale where inhibition reaches its midpoint.

Data set [1] relates to bone marrow derived cells (BMDCs). As to the kind of experiment: Proliferation assay of BMDCs (cell count with trypan blue). Format: cell-based, mouse (C57BL/6 female mice). To be noted: for IC50: Mus musculus, BMDC, 168 h, one week treatment, cellular count, read-out: IC50 for cell growth. The method, then:
(§1) BMDCs were cultured and isolated as described above.
After this time, cells were processed as described above.

Data set [2] has the same test system. The source says: Six-week old C57BL/6 female mice (Jackson Laboratoiries, Bar Harbor, Mass.) were used as bone marrow donors. The mice were euthanized by a ketamine hydrochloride (Bioniche, Belleville, ON) and xylazine (Rompum, Bayer's Inc, Toronto, ON) injections. Total bone marrow cells were collected from femurs and tibia, pooled, and washed twice with phosphate-buffered saline (PBS, Invitrogen corp., Carlsbad, Calif.) contained 2% fetal bovine serum (FBS, Hyclone Laboratories, Logan, Utah). All the bone marrow derived cells (BMDCs) were plated in 6-wells culture plates (Corning, Corning, N.Y.) precoated with rat fibronectin (Calbiochem, San Diego, Calif.), in Hematopoietic Growth Medium (HPGM Lonza, Walkersvelle, Md.) contained 2% fetal bovine serum (FBS, Hyclone Laboratories) and antibiotics (1% penicillin-streptomycin, Invitrogen corp.). Cells were grown in presence of 10 ng/mL platelet derived growth factor (PDGF, Peprotech. Inc, Rocky Hill, N.J.) and 10 ng/mL […] (EGF, Peprotech. Inc.) during the first 7 days. The experimental protocol was approved by the animal care committee of the Montreal Heart Institute.
BMDCs were cultured and isolated as described above. At day 7, complete culture medium was replaced by an incomplete culture medium: HPGM medium, 2% fetal bovine serum ([…] EGF and PDGF), and 1% antibiotics (penicillin and streptomycin) with or without E2 (10^−10 M to 10^−6 M) (Sigma) and/or rapamycin (10^−11M to 10^−6 M) (LC Laboratories, Woburn, Mass.) or paclitaxel (10^−11M to 10^−6 M) (LC laboratories) for another 7 days. In the case of combined treatment, the E2 was added 24 h prior the addition of the drug. First medium change was performed four days after plating and each following three days for a total of 14 days in culture.
After this treatment, the cells were removed from the 6-well culture plate using a 0.02% solution of (ethylenedinitrilo) tetraacetic acid (EDTA, Sigma) and diluted 1:1 in Trypan blue (Invitrogen corp.) before cell count with a hemacytometer (Hausser Bright-line). Total cells number, white cells and blue stained cells were counted. The proliferation rate was defined as the total number of cells over the number of cells at day 0 of the initiation of the treatment. The survival rate was defined as the number of white cells among the total cell population. The mortality rate was defined as the percentage of blue cells (dead cells) among the total cell population. […] The combination assay was achieved by a 24-hour pretreatment of BMDCs with different concentrations of E2 (10^−8 to 10^−10 M) and the drug was added at its IC50 concentration for a one week treatment. After this time, cells were processed as described above.

Data set [3] shares this test system. As to the kind of experiment: Necrosis and apoptosis levels (annexin V / propidium iodide flow cytometry). Format: cell-based, mouse (C57BL/6 female mice). As to conditions: for number of annexin V positive cells: drug at IC90 dose, 48 hrs. The method, then:
After being cultured and isolated as described above, BMDCs were plated in 12-well culture plate. […] The cells were analyzed 24, 48 and 72 hours later after staining with FITC-conjugated annexin V (Alexis biochemical, San Diego, Calif.) and propidium iodide (PI, Sigma). Acquisition and analysis were performed on an Epics Altra cytometer as described in the section above “Analysis of the differentiation profile”.
In order to evaluate the effect of E2, paclitaxel or rapamycin on early apoptosis, late apoptosis and necrosis, BMDC were treated with either E2, paclitaxel or rapamycin and stained with annexin V and propodium iodine. Cells positive for annexin V only are considered in the early phases of apoptosis while cells positive for propodium iodine only are in necrosis. Cells which stained for both annexin V and propiodium iodine are in a more advanced apoptotic process (FIG. 6). The effect of E2 on the levels of apoptotic and necrotic cells in rapamycin or paclitaxel-treated cells was evaluated (FIG. 7)
In general terms: A flow cytometer gives signals particle by particle.

The test system is the same in data set [4]. As to the kind of experiment: Differentiation profile of BMDCs by flow cytometry. As to conditions: for percentage of CD117+ cells: E2 alone (10^−9M) or in combination with paclitaxel (5×10^−9 M), one week; for total or sub-populations of CD44+ cells: one week treatment, paclitaxel 5×10^-9M, rapamycin 10^-10M, alone or in combination. It counts as cell-based, mouse (C57BL/6 female mice). The method, then:
as §1
BMDCs were plated and grown during 7 days before treatment (stimulation). Rapamycin (LC Laboratories) or paclitaxel (LC laboratories) were added for a one week treatment at IC50 concentration. Afterward, cells were washed twice in PBS and non specific binding sites were blocked with 5% normal rat serum (Jackson Immunoresearch Laboratories Inc.). To evaluate the differentiation profile of the BMDCs, quadruple stainings were performed as follow: 1) for the HSC allophycocyanin (APC, Caltag Laboratories, Carlsbad, Calif.) conjugated monoclonal rat-anti-mouse CD117, fluorescein isothiocyanate (FITC, BD pharmingen, San Jose, Calif.) conjugated monoclonal rat anti-mouse CD31 (platelet endothelial cell adhesion molecules-1, PECAM), biotin conjugated monoclonal rat anti-mouse CD34 (Bio, BD pharmingen), growth factor receptor-2 (VEGFR2); and 2) for the stromal cells: APC (Abcam Inc., Cambridge Mass.) conjugated monoclonal rat anti-mouse CD90, FITC conjugated (BD pharmingen) monoclonal rat anti-mouse CD44 (hyaluronic acid receptor), PE conjugated monoclonal rat anti-mouse vascular cell adhesion molecule (V-CAM/CD106, Abcam Inc.), biotin (Abcam Inc.) conjugated monoclonal rat anti-mouse CD105 (Endoglin). Corresponding isotype antibodies were used as negative controls; monoclonal rat anti-mouse IgG2a-APC (Abcam Inc.), monoclonal rat anti-mouse IgG2a-FITC, (Abcam Inc.), monoclonal rat anti-mouse IgG2a-PE (BD pharmingen), monoclonal rat anti-mouse IgG2a-Bio (Abcam Inc.). To analyze the biotin conjugated antibody, a secondary antibody streptavidine-ECD (Beckman coulter, Fullerton, Calif.) was used. Data acquisition was performed using 1×10^6 events per sample. Of these events, only low-to-medium FSC (forward scattered channel) and SSC (side scattered channel) singlets were gated for analysis of BM subpopulations. In all cases, gated singlets represented 80 to 90% of acquired events. The acquisition and analysis were performed on an Epics Altra cytometer from Beckman using the EXPO™ 32 system ADC software (Beckman Coulter, Fullerton, Calif.).

Another data set has as its system ERβ. The data set is described as follows: Western blot, ERβ expression in BMDCs / mBMPC. Format: cell-based, mouse. The method, then:
(§2) Membranes were stripped with Re-Blot Plus™ (International Chemicon) and total protein expression was determined with a goat polyclonal β-actin (1:1000 dilution, Santa Cruz Biotechnology Inc.).

Data set [5] concerns ERα and ERβ expressed by BMDCs. As to the kind of experiment: Western blot, ratio of ERα expression over ERβ in BMDCs. Format: cell-based, mouse (C57BL/6 female mice). To be noted: 24-hour stimulation, at 10^−8 and 10^−7M. The method, then: as §2
The next data set relates to ERα. As to the kind of experiment: Western blot, ERα expression in BMDCs / mBMPC. As to conditions: paclitaxel-treated cells, 24 h, 10^−8 and 10^−7M. For orientation: Immunoblotting shows a protein as a band on a membrane.

Entries after “also recorded” stand apart in the source; their conditions may differ.

As for `C[C@]12CC[C@@H]3c4ccc(O)cc4CC[C@H]3[C@@H]1CC[C@@H]2O` [E2, 17-beta-estradiol], the “number of living cells” value in data set [1] (one-week treatment with a dose range of E2, compared to cells maintained in HPGM) is “not affected”. For the same molecule, in data set [2], the “dead cells (percentage of dead cells)” value was “not affected” and the “reduction of mortality rate” value is 7-11%. Moreover, in data set [2] (10^−10M E2 added to rapamycin or paclitaxel at IC50, one week, compared to cells treated with the drug only), the “improvement of survival rate” value is “about 30%”. Also, the “apoptotic and necrotic cells rates” value in data set [3] (1 week incubation, alone or in combination with E2, flow cytometry) is reported as “no appreciable differences”. The “percentage of annexin V positive cells” value in data set [3] (E2 combined with rapamycin IC50, 48 hrs, compared to rapamycin IC50 alone) is listed as “tended to reduce”. Further, the “blocking of the drug-induced (IC90) increase of annexin V positive cells” value in data set [3] (E2 combined with rapamycin or paclitaxel at IC90, 48 hrs stimulations) is “could not be blocked”. For the same molecule, in data set [4], the “percentage of CD117+ cells” value was “tended to increase; also recorded: increases” and the “total or sub-populations of CD44+ cells” value is reported as “no effect”. Also, the “percentage of CD117+ cells” value in data set [4] (listed as Estradiol) is “increase”. Moreover, the “level (%) of CD117+ cells in paclitaxel-treated BMDCs” value in data set [4] (in the presence of E2 (24 h pre-treatment), paclitaxel 5×10^−9 M) is on record as “higher level”. Further, in data set [4] (two weeks in culture including one week with various doses of E2), the “number of CD14+ cells” value is reported as “does not influence”. Further, the “regulation of ERβ expression” value in the data set on ERβ (mBMPC, 24-hour stimulation with various doses of E2 (not shown)) is listed as “No regulation”.

As to `CC(=O)O[C@H]1C(=O)[C@@]2(C)[C@H]([C@H](OC(=O)c3ccccc3)[C@]3(O)C[C@H](OC(=O)[C@H](O)[C@@H](NC(=O)c4ccccc4)c4ccccc4)C(C)=C1C3(C)C)[C@]1(OC(C)=O)CO[C@@H]1C[C@@H]2O` [paclitaxel], in data set [1] (BMDCs, one week, very low doses), the “effect on proliferation at very low doses” value was “proliferative effect”. The IC50 in data set [1] (BMDCs) was 5 nM. Besides, in data set [2], the “mortality rate, drug alone” value is on record as “not observed” and the “toxicity on bone marrow derived cells” value is “toxic”. Also, in data set [3], the “number of annexin V positive cells” value is recorded as “increased significantly”. Moreover, the “total or sub-populations of CD44+ cells” value in data set [4] is “no effect”. For the same molecule, in data set [4] (one-week treatment at IC50 concentration), the “differentiation profile of CD117+ or CD44+” value is “does not affect”. Also, the “drop in ERα/ERβ ratio” value in data set [5] was “up to 50%”. Moreover, in the data set on ERβ (paclitaxel-treated cells, 24 h, 10^−8 and 10^−7M), the ERβ expression entry is given as “induction”. The ERα expression result in the data set with ERα is given as “decrease”.

`CO[C@H]1C[C@@H]2CC[C@@H](C)[C@@](O)(O2)C(=O)C(=O)N2CCCC[C@H]2C(=O)O[C@H]([C@H](C)C[C@@H]2CC[C@@H](O)[C@H](OC)C2)CC(=O)[C@H](C)/C=C(\C)[C@@H](O)[C@@H](OC)C(=O)[C@H](C)C[C@H](C)/C=C/C=C/C=C/1C` [rapamycin]: in data set [1] (BMDCs), the half-inhibitory concentration (IC50) came to 0.1 nM. Besides, in data set [2], the “mortality rate, drug alone” value is given as “significantly increased” and the “toxicity on bone marrow derived cells” value is “toxic”. Moreover, the “number of annexin V positive cells” value in data set [3] is “increased significantly”. For the same molecule, in data set [4], the “total or sub-populations of CD44+ cells” value is “no effect”.

Values taken from patent US20100247602A1, “METHOD OF REDUCING THE EFFECTS OF CYTOSTATIC DRUGS ON BONE MARROW DERIVED CELLS, AND METHODS OF SCREENING” (priority 2007, published 2010).
